15 molecules from paper PMC6150275, “Synthesis and Molecular Modeling Studies of N′-Hydroxyindazolecarboximidamides as Novel Indoleamine 2,3-Dioxygenase 1 (IDO1) Inhibitors” (Molecules : A Journal of Synthetic Chemistry and Natural …, 2017) can be followed below.

Experiment [1] concerns the target T1, human IDO1 expressing HEK293 recombinant cells (Homo sapiens, UniProt P14902).
T1 construct: expressed in transfected cells; host or cells: Flp-In-Rex- HEK293 cells (Invitrogen), pcDNA5/FRT/TO vector, doxycycline-induced
The experiment in a line: Cell based assay for anti-IDO1 activity by determination of tryptophan and kynurenine in culture supernatant using LC-MS. The note with it: for IC50: human IDO1-expressing HEK293 cells, doxycycline induced, 24 h, dose-response curve. The protocol:
All synthesized compounds were evaluated for inhibitory activities against IDO1. For this purpose, we generated human IDO1 gene-expressing HEK293 recombinant cells and used those cells to analyze the inhibitory capacity of the compounds. Briefly, we induced the expression vector system of IDO1 by treating […] cells with doxycycline, and measured both the depletion of L-tryptophan in culture media and the generation of kynurenine in IDO1-overexpressing HEK293 cells by using the LC-MS system upon culture supernatants.
cDNA of human IDO1 gene (provided from Korean UniGene, Daejeon, Korea) was inserted into pcDNA5/FRT/TO expression vector (Invitrogen, Waltham, MA, USA) and transfected into Flp-In-Rex- HEK293 cells (Invitrogen). After transfection, homogenous IDO1 expressing HEK293 cells were selected using hygromycin and confirmed for their IDO1 expression using Western blot.
To analyze anti-IDO1 activity of compounds, human IDO1 expressing HEK293 recombinant cells were seeded in 100 μL of complete MEM media containing 10% FBS in a 96-well plate. After incubation for 48 hours, various concentrations of compounds with 0.2 ng/mL doxycyclin (Sigma Aldrich, St. Louis, MO, USA) was treated and incubated for 24 h. Culture supernatants were collected and prepared for analysis of tryptophan and kynurenine using LC-MS. For preparation of samples for LC-MS analysis, 30 μL of culture supernatant was mixed with 2 μM caffeine containing 270 μL methanol. After centrifugation at 12,000 rpm for 10 min, 100 μL of supernatant was transferred into new 1.5 mL tubes. Distilled water (900 μL) was added into 100 μL of supernatant and vortexed. The concentrations of tryptophan and kynurenine were determined by an LC-MS/MS system consisting of an Agilent 1200 series HPLC system (Agilent Technologies, Santa Clara, CA, USA) with an API 4000 QTRAP hybrid triple quadrupole/linear ion trap mass spectrometer (AB Sciex, Foster City, CA, USA) equipped with a turbo electrospray interface. Chromatographic separation of tryptophan and kynurenine was achieved on a Unison UK-C18 column (100 mm × 2 mm i.d., 3 μm; Imtakt, Kyoto, Japan) with a Security Guard C18 guard column (4 mm × 20 mm i.d.; Phenomenex, Torrance, CA, USA) maintained at 25 °C. Isocratic mode was used to achieve separation of the analytes using mobile phase (acetonitrile with 0.1 formic acid and water with 0.1% formic acid (20:80 v/v) at a flow rate of 300 μL/min for 3 min. The multiple reaction monitoring (MRM) transition was m/z 204.94 → 188.1 for tryptophan and m/z 208.97 → 192.00 for kynurenine under positive-ionization. Optimized values for de-clustering potential, collision energy, entrance potential, and collision-exit potential were 26 V, 15 eV, 9.5 V and 8 V and 21 V, 13 eV, 10 V and 8 V for tryptophan and kynurenine, respectively. The optimized instrument conditions were as follows: ion spray voltage, 5500 V; source temperature, 450 °C; curtain gas, 25 psi; nebulizing gas (GS1), 30 psi; heating gas (GS2), 30 psi. Data analysis was performed using Analyst Software version 1.4.2. (AB Sciex, Foster City, CA, USA).

Experiment [2] concerns the target T2, hIDO1 (Homo sapiens, UniProt P14902).
T2 construct: purchased BPS Bioscience (San Diego, CA, USA)
The experiment in a line: hIDO1 enzymatic assay (BPS Bioscience IDO1 inhibitor screening assay kit). Type of experiment: biochemical. The settings on record: for inhibition at 20 µM: 20 µM compound, enzymatic assay. The protocol: To analyze the hIDO1 inhibitory activities of compounds, we used IDO1 inhibitor screening assay kit and followed the protocol provided from BPS Bioscience (San Diego, CA, USA). Briefly, 5 μL of IDO solution was aliquoted into a 384-well plate and treated with 5 μL of compound in buffer at room temperature for 3 h. The data was measured at λ = 320 to 325 nm.

Setting [3] is: kynurenine by LC-MS, read-out: HEK293 IC50 Kynurenine Production.
Setting [4] is: tryptophan by LC-MS, read-out: HEK293 IC50 Tryptophan Depletion.

“Also recorded” adds a separate entry of the source. Where two headings read alike, the source gives them in different places. Bounds are passed on as bounds.

T1 sequence (P14902 whole entry): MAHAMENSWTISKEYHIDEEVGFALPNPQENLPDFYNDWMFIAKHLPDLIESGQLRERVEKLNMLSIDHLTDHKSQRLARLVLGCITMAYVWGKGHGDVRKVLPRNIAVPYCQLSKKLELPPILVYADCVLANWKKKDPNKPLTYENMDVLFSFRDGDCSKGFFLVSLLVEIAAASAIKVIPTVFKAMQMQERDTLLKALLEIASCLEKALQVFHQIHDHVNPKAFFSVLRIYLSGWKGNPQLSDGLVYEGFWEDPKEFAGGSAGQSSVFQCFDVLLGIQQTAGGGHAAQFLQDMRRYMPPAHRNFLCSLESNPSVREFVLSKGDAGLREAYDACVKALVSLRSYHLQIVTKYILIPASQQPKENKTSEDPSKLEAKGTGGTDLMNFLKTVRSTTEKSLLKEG
T2 sequence (P14902 whole entry): as above

As for `Cc1cccc(N/C(=N\O)c2cccc3cn[nH]c23)c1` [Compound 8g, (Z)-N′-Hydroxy-N-(m-tolyl)-1H-indazole-7-carboximidamide], the half-inhibitory concentration (IC50) in experiment [1] (setting [3]) and in experiment [1] (setting [4]) was more than 10 µM throughout.

As to `O/N=C(\Nc1ccc(F)c(Br)c1)c1ccccc1O` [Compound 16, (Z)-N-(3-Bromo-4-fluorophenyl)-N′,2-dihydroxybenzimidamide], the “IDO1 inhibition in cell-based assay (in words)” value in experiment [1] was “moderate inhibitory activity”. For the same molecule, the IC50 in experiment [1] (setting [3]) amounted to 7.91 µM; in experiment [1] (setting [4]) it was 7.76 µM.

Consider `CC(=O)c1cccc(N/C(=N\O)c2cccc3cn[nH]c23)c1` [Compound 8f, (Z)-N-(3-Acetylphenyl)-N′-hydroxy-1H-indazole-7-carboximidamide], for which the IC50 in experiment [1] (setting [3]) and in experiment [1] (setting [4]) was more than 10 µM each time.

`O/N=C(\Nc1cc(F)ccc1F)c1cccc2cn[nH]c12` [Compound 8e, (Z)-N-(2,5-Difluorophenyl)-N′-hydroxy-1H-indazole-7-carboximidamide]: the IC50 in experiment [1] (setting [3]) and in experiment [1] (setting [4]) was more than 10 µM in each case.

Regarding `O/N=C(\Nc1ccc(F)c(Cl)c1)c1cccc2cn[nH]c12` [Compound 8b, (Z)-N-(3-Chloro-4-fluorophenyl)-N′-hydroxy-1H-indazole-7-carboximidamide], the results for the IC50 in experiment [1] (setting [3]) and in experiment [1] (setting [4]) were 3.14 µM and 3.26 µM, respectively. The same molecule displayed an inhibition at 20 µM in experiment [2] of 79%.

On to `COc1ccc(N/C(=N\O)c2cccc3cn[nH]c23)cc1Cl` [Compound 8i, (Z)-N-(3-Chloro-4-methoxyphenyl)-N′-hydroxy-1H-indazole-7-carboximidamide], for which the IC50 in experiment [1] (setting [3]) and in experiment [1] (setting [4]) was more than 10 µM in each case.

Turning to `O/N=C(\Nc1ccc(F)cc1)c1cccc2cn[nH]c12` [Compound 8d, (Z)-N-(4-Fluorophenyl)-N′-hydroxy-1H-indazole-7-carboximidamide], the IC50 in experiment [1] (setting [3]) and in experiment [1] (setting [4]) was more than 10 µM throughout.

For the molecule `O/N=C(\Nc1ccc(Cl)cc1)c1cccc2cn[nH]c12` [Compound 8k, (Z)-N-(4-Chlorophenyl)-N′-hydroxy-1H-indazole-7-carboximidamide], the IC50 in experiment [1] (setting [3]) and in experiment [1] (setting [4]) was more than 10 µM in each case.

For the molecule `O/N=C(\Nc1ccccc1)c1cccc2cn[nH]c12` [Compound 8j, (Z)-N′-Hydroxy-N-phenyl-1H-indazole-7-carboximidamide], the IC50 in experiment [1] (setting [3]) and in experiment [1] (setting [4]) was more than 10 µM each time.

As for `O/N=C(\Nc1ccc(F)c(Br)c1)c1cccc2cn[nH]c12` [Compound 8a, (Z)-N-(3-Bromo-4-fluorophenyl)-N′-hydroxy-1H-indazole-7-carboximidamide], the “IDO1 inhibition in cell-based assay (in words)” value in experiment [1] was “most active in this series; also recorded: moderate IDO1 inhibitory activity”. Besides, the IC50 in experiment [1] (setting [3]) was determined as 2.13 µM; in experiment [1] (setting [4]), 1.76 µM. Besides, in experiment [2], the inhibition at 20 µM amounted to 81%.

Take `O/N=C(\Nc1cccc(Cl)c1)c1cccc2cn[nH]c12` [Compound 8c, (Z)-N-(3-Chlorophenyl)-N′-hydroxy-1H-indazole-7-carboximidamide]: the IC50 was 4.89 µM in experiment [1] (setting [3]) and 4.95 µM in experiment [1] (setting [4]). In experiment [2], at 20 µM the inhibition was 77%.

Regarding `Cc1cc(N/C(=N\O)c2cccc3cn[nH]c23)ccc1Cl` [Compound 8h, (Z)-N-(4-Chloro-3-methylphenyl)-N′-hydroxy-1H-indazole-7-carboximidamide], the half-inhibitory concentration (IC50) in experiment [1] (setting [3]) and in experiment [1] (setting [4]) was more than 10 µM in each case.

With `Cc1ccc(N/C(=N\O)c2cccc3cn[nH]c23)cc1` [Compound 8m, (Z)-N′-Hydroxy-N-(p-tolyl)-1H-indazole-7-carboximidamide], the IC50 in experiment [1] (setting [3]) and in experiment [1] (setting [4]) was more than 10 µM each time.

Regarding `COc1ccc(N/C(=N\O)c2cccc3cn[nH]c23)cc1` [Compound 8l, (Z)-N′-Hydroxy-N-(4-methoxyphenyl)-1H-indazole-7-carboximidamide], the IC50 in experiment [1] (setting [3]) and in experiment [1] (setting [4]) was more than 10 µM throughout.

For the molecule `Cn1ncc2cccc(/C(=N/O)Nc3ccc(F)c(Br)c3)c21` [Compound 12, (Z)-N-(3-Bromo-4-fluorophenyl)-N′-hydroxy-1-methyl-1H-indazole-7-carboximidamide], the “IDO1 inhibition in cell-based assay (in words)” value in experiment [1] was “did not inhibit IDO1”. The IC50 in experiment [1] (setting [3]) and in experiment [1] (setting [4]) was more than 10 µM throughout. For the same molecule, the “hIDO1 inhibition in enzymatic assay (in words)” value in experiment [2] was “did not inhibit IDO1”. In experiment [2], the inhibition at 20 µM was 15%.

Broadly, the IC50 is the concentration that gives 50% inhibition. A word on the inhibition: it is the relative decrease from the control value, in per cent. A high value points to strong suppression.
